From patent publication US8476433B2, “Agent exhibiting the properties of a cognitive function promoter (embodiments)” (Unikorm, priority 2010, dated 2013) come the findings set out here.

The subject of data set [1] is learning and memory of mice, scopolamine-induced amnesia. The experiment in a line: Conditioned passive avoidance response (CPAR), step down method, in model of amnesia induced by scopolamine and undertraining. It is filed as in vivo. The settings on record: for Number of animals with CPAR (%): male mice; for effect on learning and memory during scopolamine-induced amnesia: mice, i/p before or immediately after training, tested after 2 hours and 24 hours. From the text:
In order to study the activity of the synthesized compounds in vivo one of the most used methodologies of examination and assessment of activation of cognitive functions was used—improvement or easier development of conditioned passive avoidance response (CPAR) in animals. From the time of study of cognitive properties of nootropil and up to the present time, conditioned passive avoidance response (CPAR) is used more often than other behavioral procedures for studying and screening of drugs affecting the processes of learning and memory in rodents. CPAR is used for studying the action of drugs on learning (if the tested drug is administered before a training session), on saving or retention in memory (if the drug is administered after the training) and on memory retrieval (administering drugs before memory testing). This method is also used to study and test substances in models of disorders of learning and memory, caused by experimental brain dysfunction (GABA, cholinergic, induced by cholinergic toxin AF64A), alcohol-benzodiazepine induced, electrocution induced, hypoxia induced and age-related amnesias, inhibition of protein synthesis, etc..
Comparative study of the effects of compounds 1 and 2 on learning and memory of mice in tests of conditioned passive avoidance response (CPAR) in model of amnesia, induced by the administration of scopolamine—a blocker of central cholinergic receptors.
Studies were performed using 470 male mice, body mass 20-22 g, using 20 animals for one dose. CPAR conditioning of mice was performed using step down method, in a cell with electrode floor and avoidance area. Parameters of electric stimulation for animals leaving the safety area were 50 V during 3-5 sec. The criterion of learning and memory was the staying of the animal in the area during 1 minute when testing 2 hours after training and 24 hours after training.
Learning deficit was induced by the administration of scopolamine (1.0 mg/kg, intraperitoneal) 15 minutes before the training and by reduction in the number of animal training sessions to 2 instead of 5 (undertraining).
The duration of the mnemotropic action of the compounds in conditions of learning deficit was assessed by the number of animals in a group (in percents), staying in safety zone (with immobilization).
To assess their action of different phases of memory development (fixation, consolidation and reproduction) the tested compounds were administered before the training (before scopolamine) and immediately after the training. The tested compounds were administered intraperitoneally using 2 schedules: […] and, correspondingly, 5 minutes before scopolamine, second—compounds in the same doses right after the training. Control was parallel in each series of experiments: one control group received saline solution instead of the tested compounds and scopolamine, second control group—scopolamine, using the same schedule and doses.
Statistical analysis was conducted with significance of difference from negative control at p<0.05.

A further data set is described as follows: Acute toxicity i/p. The settings on record: for Therapeutic index LD50/Min. ED: LD50 i/p / minimum effective dose in CPAR; for LD50: in vivo, intraperitoneal.
Where [2] appears, read: dose 0.01 mg/kg i/p, scopolamine 1.0 mg/kg i/p amnesia.
The mark [3] stands for this setting: dose 0.1 mg/kg i/p, scopolamine 1.0 mg/kg i/p amnesia.
The mark [4] stands for this setting: dose 1.0 mg/kg i/p, scopolamine 1.0 mg/kg i/p amnesia.
Setting [5] is: dose 10.0 mg/kg i/p, scopolamine 1.0 mg/kg i/p amnesia.

By LD50 is commonly meant the dose at which mortality reaches 50%.

Regarding `CN1[C@@H]2C[C@@H](OC(=O)[C@H](CO)c3ccccc3)C[C@H]1[C@@H]1O[C@@H]12` [Scopolamine, scopolamine, reference compound], the “learning ability (animals staying in safety area) after scopolamine” value in data set [1] (scopolamine 1.0 mg/kg i/p 15 minutes before training plus undertraining, average, controls about 80%) is 28%. In addition, the “Number of animals with CPAR (%)” value in data set [1] (scopolamine alone 1.0 mg/kg i/p (amnesia control group)) worked out at 35%.

As for `CN1C(=O)C(=CNc2ccncc2)C(=O)N(C)C1=O` [Compound 1, 1,3-dimethyl-5-[(4-pyridylamino)methylene]barbituric acid], the “Number of animals with CPAR (%)” value in data set [1] (setting [2]) is given as 90.0%; in data set [1] (setting [3]) it was 80.0%; in data set [1] (setting [4]), 60.0%; in data set [1] (setting [5]), 50.0%. Also, the “effect on learning and memory during scopolamine-induced amnesia” value in data set [1] was “improved learning and memory”. For the same compound, the “Therapeutic index LD50/Min. ED” value in “Acute toxicity i/p” amounted to 1530. This compound returned an LD50 in “Acute toxicity i/p” of 15.3 ± 2.6 mg/kg.

Consider `Nc1cc[n+](-c2nccc3c2cc([N+](=O)[O-])c(=O)n3-c2ccccc2)cc1` [Compound 2, 4-amino-1-(3-nitro-2-oxo-1-pheny-1,2-dihydro-1,6-naphthyridin-5-yl)pyridinium chloride], for which the “Number of animals with CPAR (%)” value is given as 60% in data set [1] (setting [2]), 80% in data set [1] (setting [3]), 70% in data set [1] (setting [4]) and 60% in data set [1] (setting [5]). The “effect on learning and memory during scopolamine-induced amnesia” value in data set [1] is “improved learning and memory”. Besides, in the data set “Acute toxicity i/p”, the “Therapeutic index LD50/Min. ED” value was determined as 10770. This compound returned an LD50 in the data set “Acute toxicity i/p” of 108 ± 14.1 mg/kg.
